# Reference: US20130157954A1, “METHODS FOR TREATMENT OR PROPHYLAXIS OF KIDNEY OR LIVER DYSFUNCTION” (NPS PHARMACEUTICALS, INC., priority 2010, published 2013)
# Test: Example 1: kidney biomarkers (urea nitrogen, creatinine, GFR) in short bowel syndrome patients, every four weeks for 24 weeks; also sorted by >5% change from baseline
# Format: in vivo, Human
# Design: CREATININE (RATE BLANKED) Change from Baseline Median / GFR Median / GFR Change from Baseline Median / UREA NITROGEN Median / UREA NITROGEN Change from Baseline Median: unit not given here
# Settings: 0.05 mg/kg/day
# Method: Human patients with short bowel syndrome were divided into three groups: a control group (16 total individuals) to receive placebo, an experimental group (35 total individuals) to receive teduglutide at 0.05 mg/kg/day throughout the study, and an experimental group (32 total individuals) to receive teduglutide at 0.1 mg/kg/day throughout the study. Patients were treated by subcutaneous injection of placebo or the appropriate dose of teduglutide. As individuals with short bowel syndrome are likely to experience associated liver and kidney disease, known biomarkers of liver and kidney function were monitored every four weeks, for 24 weeks. The liver biomarkers tested included total bilirubin, ALT and AST and ALP. The kidney biomarkers tested included urea nitrogen, creatinine and GFR. Before administration of placebo or teduglutide, diagnostic biomarker levels were tested to establish a baseline for each individual.
# To visualize the effect of GLP-2 on the levels of the diagnostic biomarkers, the average change from baseline was calculated for the placebo and teduglutide treated groups for each visit after a baseline was established. The average change from baseline of each group is depicted in FIGS. 1-7. The numerical figures for each diagnostic biomarker at each time point are depicted in Table 1.
# The raw data for this sorting is reproduced in Table 2 below.
smiles,measurement,setting,value
CC[C@H](C)[C@H](NC(=O)[C@H](Cc1ccccc1)NC(=O)[C@H](CC(=O)O)NC(=O)[C@H](CCCNC(=N)N)NC(=O)[C@H](C)NC(=O)[C@H](C)NC(=O)[C@H](CC(C)C)NC(=O)[C@H](CC(N)=O)NC(=O)[C@H](CC(=O)O)NC(=O)[C@H](CC(C)C)NC(=O)[C@@H](NC(=O)[C@@H](NC(=O)[C@H](CC(N)=O)NC(=O)[C@H](CCSC)NC(=O)[C@H](CCC(=O)O)NC(=O)[C@H](CC(=O)O)NC(=O)[C@H](CO)NC(=O)[C@H](Cc1ccccc1)NC(=O)[C@H](CO)NC(=O)CNC(=O)[C@H](CC(=O)O)NC(=O)CNC(=O)[C@@H](N)Cc1c[nH]cn1)[C@@H](C)O)[C@@H](C)CC)C(=O)N[C@@H](CC(N)=O)C(=O)N[C@@H](Cc1c[nH]c2ccccc12)C(=O)N[C@@H](CC(C)C)C(=O)N[C@H](C(=O)N[C@@H](CCC(N)=O)C(=O)N[C@H](C(=O)N[C@@H](CCCCN)C(=O)N[C@H](C(=O)N[C@H](C(=O)N[C@@H](CC(=O)O)C(=O)O)[C@@H](C)O)[C@@H](C)CC)[C@@H](C)O)[C@@H](C)CC [teduglutide],CREATININE (RATE BLANKED) Change from Baseline Median,DW4,1.5
same,CREATININE (RATE BLANKED) Median,DW4,80 µmol/L
same,GFR Change from Baseline Median,DW4,−0.6
same,GFR Median,DW4,77.0
same,UREA NITROGEN Change from Baseline Median,DW4,−0.4
same,UREA NITROGEN Median,DW4,4.9
same,CREATININE (RATE BLANKED) Change from Baseline Median,DW8,0.0
same,CREATININE (RATE BLANKED) Median,DW8,71 µmol/L
same,GFR Change from Baseline Median,DW8,1.1
same,UREA NITROGEN Change from Baseline Median,DW8,−0.3
same,UREA NITROGEN Median,DW8,5.2
same,CREATININE (RATE BLANKED) Change from Baseline Median,DW12,8.0
same,CREATININE (RATE BLANKED) Median,DW12,80 µmol/L
same,GFR Change from Baseline Median,DW12,−5.0
same,UREA NITROGEN Change from Baseline Median,DW12,−0.5
same,UREA NITROGEN Median,DW12,4.4
same,CREATININE (RATE BLANKED) Change from Baseline Median,DW16,0.0
same,CREATININE (RATE BLANKED) Median,DW16,79 µmol/L
same,GFR Change from Baseline Median,DW16,0.9
same,UREA NITROGEN Change from Baseline Median,DW16,−0.3
same,UREA NITROGEN Median,DW16,4.4
same,CREATININE (RATE BLANKED) Change from Baseline Median,DW20,0.0
same,GFR Change from Baseline Median,DW20,0.9
same,GFR Median,DW20,74.0
same,UREA NITROGEN Change from Baseline Median,DW20,−0.3
same,UREA NITROGEN Median,DW20,5.2
same,CREATININE (RATE BLANKED) Change from Baseline Median,DW 24,−0.5
same,CREATININE (RATE BLANKED) Median,DW 24,80 µmol/L
same,GFR Change from Baseline Median,DW 24,1.7
same,UREA NITROGEN Change from Baseline Median,DW 24,−0.7
same,UREA NITROGEN Median,DW 24,4.9
same,"CREATININE (RATE BLANKED) change from baseline <−5%, number of patients",week 4,7
same,"CREATININE (RATE BLANKED) change from baseline <−5%, percent of patients",week 4,(20.0%)
same,"CREATININE (RATE BLANKED) change from baseline >5%, number of patients",week 4,14
same,"CREATININE (RATE BLANKED) change from baseline >5%, percent of patients",week 4,(40.0%)
same,"CREATININE (RATE BLANKED) change from baseline −5% <= and <=5%, number of patients",week 4,9
same,"CREATININE (RATE BLANKED) change from baseline −5% <= and <=5%, percent of patients",week 4,(25.7%)
same,"GFR change from baseline <−5%, number of patients",week 4,13
same,"GFR change from baseline <−5%, percent of patients",week 4,(37.1%)
same,"GFR change from baseline >5%, number of patients",week 4,8
same,"GFR change from baseline >5%, percent of patients",week 4,(22.9%)
same,"GFR change from baseline −5% <= and <=5%, number of patients",week 4,9
same,"GFR change from baseline −5% <= and <=5%, percent of patients",week 4,(25.7%)
same,"UREA NITROGEN change from baseline <−5%, number of patients",week 4,16
same,"UREA NITROGEN change from baseline <−5%, percent of patients",week 4,(45.7%)
same,"UREA NITROGEN change from baseline >5%, number of patients",week 4,7
same,"UREA NITROGEN change from baseline >5%, percent of patients",week 4,(20.0%)
same,"UREA NITROGEN change from baseline −5% <= and <=5%, number of patients",week 4,7
same,"UREA NITROGEN change from baseline −5% <= and <=5%, percent of patients",week 4,(20.0%)
same,"CREATININE (RATE BLANKED) change from baseline <−5%, number of patients",week 8,11
same,"CREATININE (RATE BLANKED) change from baseline <−5%, percent of patients",week 8,(31.4%)
same,"CREATININE (RATE BLANKED) change from baseline >5%, number of patients",week 8,10
same,"CREATININE (RATE BLANKED) change from baseline >5%, percent of patients",week 8,(28.6%)
same,"CREATININE (RATE BLANKED) change from baseline −5% <= and <=5%, number of patients",week 8,8
same,"CREATININE (RATE BLANKED) change from baseline −5% <= and <=5%, percent of patients",week 8,(22.9%)
same,"GFR change from baseline <−5%, number of patients",week 8,9
same,"GFR change from baseline <−5%, percent of patients",week 8,(25.7%)
same,"GFR change from baseline >5%, number of patients",week 8,12
same,"GFR change from baseline >5%, percent of patients",week 8,(34.3%)
same,"GFR change from baseline −5% <= and <=5%, number of patients",week 8,7
same,"GFR change from baseline −5% <= and <=5%, percent of patients",week 8,(20.0%)
same,"UREA NITROGEN change from baseline <−5%, number of patients",week 8,14
same,"UREA NITROGEN change from baseline <−5%, percent of patients",week 8,(40.0%)
same,"UREA NITROGEN change from baseline >5%, number of patients",week 8,10
same,"UREA NITROGEN change from baseline >5%, percent of patients",week 8,(28.6%)
same,"UREA NITROGEN change from baseline −5% <= and <=5%, number of patients",week 8,5
same,"UREA NITROGEN change from baseline −5% <= and <=5%, percent of patients",week 8,(14.3%)
same,"CREATININE (RATE BLANKED) change from baseline <−5%, number of patients",week 12,7
same,"CREATININE (RATE BLANKED) change from baseline <−5%, percent of patients",week 12,(20.0%)
